{"source": "patent US20030092004A1", "about": "(priority 2001, published 2003)", "key": {"NR1/NR3B receptors": {"molecular_target": "NR1/NR3B receptors (Rattus norvegicus, UniProt P35439+Q8VHN2)", "sequence (Q8VHN2 25-1002, other chains not shown)": "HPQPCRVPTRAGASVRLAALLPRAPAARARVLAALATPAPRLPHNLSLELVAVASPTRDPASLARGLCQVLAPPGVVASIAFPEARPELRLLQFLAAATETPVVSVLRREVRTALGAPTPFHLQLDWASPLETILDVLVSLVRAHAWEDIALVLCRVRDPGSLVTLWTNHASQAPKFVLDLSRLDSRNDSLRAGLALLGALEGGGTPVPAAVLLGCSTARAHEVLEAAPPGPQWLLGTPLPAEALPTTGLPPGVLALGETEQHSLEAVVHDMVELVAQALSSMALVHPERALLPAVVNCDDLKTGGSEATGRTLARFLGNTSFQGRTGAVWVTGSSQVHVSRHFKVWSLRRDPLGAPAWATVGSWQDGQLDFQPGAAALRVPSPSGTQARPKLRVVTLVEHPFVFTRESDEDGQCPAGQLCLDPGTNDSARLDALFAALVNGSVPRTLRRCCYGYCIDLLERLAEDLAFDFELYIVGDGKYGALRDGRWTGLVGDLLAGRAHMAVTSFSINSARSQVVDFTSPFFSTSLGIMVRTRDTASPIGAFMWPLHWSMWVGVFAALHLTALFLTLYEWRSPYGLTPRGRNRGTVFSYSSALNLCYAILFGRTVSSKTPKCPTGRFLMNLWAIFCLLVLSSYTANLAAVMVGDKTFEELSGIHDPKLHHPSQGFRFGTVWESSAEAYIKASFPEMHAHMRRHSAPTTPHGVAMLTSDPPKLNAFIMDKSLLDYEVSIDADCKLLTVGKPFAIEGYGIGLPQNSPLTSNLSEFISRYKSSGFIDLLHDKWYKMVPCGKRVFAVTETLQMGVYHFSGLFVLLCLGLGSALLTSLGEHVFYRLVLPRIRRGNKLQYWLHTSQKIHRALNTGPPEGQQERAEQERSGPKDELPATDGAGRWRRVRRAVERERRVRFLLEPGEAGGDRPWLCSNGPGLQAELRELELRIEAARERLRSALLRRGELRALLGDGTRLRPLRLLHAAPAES", "experiment": "Two-electrode voltage-clamp recording of whole-cell currents in Xenopus oocytes injected with NR1 and NR3B cRNA", "type": "cell-based", "settings": "for effect on glycine-evoked NR1/NR3B currents on co-application: doses maximally effective at classical NMDARs", "procedure": "Currents were recorded in 1.5 mM Ba^2+ Ringers' solution from oocytes injected with 2 ng of NR1 cRNA and 12 ng of NR3B cRNA.\nNR3B cRNA for oocyte expression was produced as follows. The full-length NR3B cDNA was constructed in the pCMV6-XL4 vector (OriGene Technologies, Inc., Rockville, Md.), which contains a T7 promoter upstream of the cDNA insert. […] The truncated cRNA could potentially encode a dominant negative form of NR3B. Therefore, a new vector was constructed to facilitate production of exclusively full-length NR3B cRNA. Construction of this vector proceeded as follows. NR1 cDNA was excised from the pGEM-HE/NR1 vector (a gift from S. F. Heinemann) by digestion with EcoRI and the two ends of the truncated pGEM-HE vector were re-ligated. The truncated pGEM-HE vector retained the 5′ and 3′ UTRs of the X. laevis β-globin gene for high level protein expression in frog oocytes. The SfoI-KpnI fragment of truncated pGEM-HE, which contains the T7 promoter, was replaced with the PvuII-KpnI fragment of pBluescript II KS, which contains the T3 promoter, to generate pJC32. The abbreviated multiple cloning site of pJC32 was then replaced with the multiple cloning site from pcDNA3.1(+) (Invitrogen, Carlsbad, Calif.) by ligating the 102 bp PmeI fragment of pcDNA3.1(+) into the 3 kb SmaI-EcoRV fragment of pJC32 to generate pJC34. Oligos encoding restriction sites for AscI, PacI, and PmeI (ctagc[…]g (SEQ ID NO:52) and ctagc[…]g (SEQ ID NO:53)) were annealed and ligated into the NheI site of pJC34. The resulting vector, pJC39, contains three rare restriction sites downstream of the multiple cloning site to facilitate linearization prior to in vitro transcription using T3 RNA polymerase.\nThe full-length NR3B (B4 form) cDNA was then excised from pCMV6-XL4 by digestion with EcoRI and XbaI, and the 3.2 kb fragment was ligated into EcoRI/XbaI-digested pJC39. The resulting vector, pJC42, was linearized with PmeI, and in vitro transcription was performed using the mMessage mMachine T3 kit (Ambion, Inc., Austin, Tex.) according to the manufacturer's instructions.\nMicropipettes were filled with 3M KCl."}, "NR1/NR2A receptors": {"molecular_target": "NR1/NR2A receptors (Rattus norvegicus, UniProt P35439+Q00959)", "sequence (Q00959 20-1464 limits assumed, other chains not shown)": "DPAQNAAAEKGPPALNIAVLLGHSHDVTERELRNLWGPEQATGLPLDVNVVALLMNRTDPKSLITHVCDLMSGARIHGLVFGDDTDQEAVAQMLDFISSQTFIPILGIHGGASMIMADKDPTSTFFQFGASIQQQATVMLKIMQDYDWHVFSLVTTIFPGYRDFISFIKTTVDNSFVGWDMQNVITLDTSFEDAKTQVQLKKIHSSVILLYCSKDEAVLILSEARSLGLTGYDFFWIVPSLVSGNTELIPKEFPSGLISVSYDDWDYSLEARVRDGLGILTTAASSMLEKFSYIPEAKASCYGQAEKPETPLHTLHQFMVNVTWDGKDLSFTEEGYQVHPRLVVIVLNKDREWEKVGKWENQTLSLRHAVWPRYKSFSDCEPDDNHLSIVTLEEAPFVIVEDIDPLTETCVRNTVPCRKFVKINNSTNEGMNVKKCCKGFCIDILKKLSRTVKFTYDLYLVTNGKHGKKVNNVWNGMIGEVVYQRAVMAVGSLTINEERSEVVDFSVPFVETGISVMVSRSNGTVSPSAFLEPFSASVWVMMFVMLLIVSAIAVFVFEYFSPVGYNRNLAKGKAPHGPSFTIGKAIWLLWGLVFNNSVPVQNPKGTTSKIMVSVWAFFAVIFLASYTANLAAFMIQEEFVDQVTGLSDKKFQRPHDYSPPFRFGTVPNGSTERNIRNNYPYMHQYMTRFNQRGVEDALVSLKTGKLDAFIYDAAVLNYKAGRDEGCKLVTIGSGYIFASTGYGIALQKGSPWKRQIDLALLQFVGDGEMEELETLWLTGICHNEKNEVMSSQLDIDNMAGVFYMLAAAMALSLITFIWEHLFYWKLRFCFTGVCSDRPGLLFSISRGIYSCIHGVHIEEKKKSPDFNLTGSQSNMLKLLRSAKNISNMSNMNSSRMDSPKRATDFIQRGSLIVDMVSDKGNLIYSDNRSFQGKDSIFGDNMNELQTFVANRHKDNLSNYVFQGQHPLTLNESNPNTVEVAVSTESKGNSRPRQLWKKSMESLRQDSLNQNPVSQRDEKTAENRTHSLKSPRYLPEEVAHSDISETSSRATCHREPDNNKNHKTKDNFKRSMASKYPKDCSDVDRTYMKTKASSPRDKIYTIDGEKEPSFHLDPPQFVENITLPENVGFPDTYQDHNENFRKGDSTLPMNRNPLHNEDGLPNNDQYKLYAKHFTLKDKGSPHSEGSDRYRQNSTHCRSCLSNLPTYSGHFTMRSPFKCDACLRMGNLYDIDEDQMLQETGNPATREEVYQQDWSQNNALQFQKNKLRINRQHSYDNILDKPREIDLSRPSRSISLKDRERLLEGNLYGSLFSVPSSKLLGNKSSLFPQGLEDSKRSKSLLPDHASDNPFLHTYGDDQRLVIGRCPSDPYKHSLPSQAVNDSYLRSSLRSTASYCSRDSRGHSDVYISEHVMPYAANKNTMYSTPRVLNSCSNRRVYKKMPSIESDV", "experiment": "Two-electrode voltage-clamp recording of NMDA plus glycine-evoked currents in Xenopus oocytes expressing NR1/NR2A", "type": "cell-based", "settings": "for effect on NR1/NR2A currents: 100 μM NMDA plus 10 μM glycine", "quoted_text": "Microinjection of oocytes and electrophysiological recordings were performed as follows. Physiological and pharmacological properties of NMDA receptor subunits were characterized in the X. laevis oocyte expression system. Full-length cDNAs encoding NMDA receptor subunits were linearized and used as templates for synthesis of cRNA by in vitro transcription using T3 or T7 RNA polymerase (Ambion, Inc., Austin, Tex.). The DNA template was removed by DNase I digestion, and the RNA was purified by phenol/chloroform extraction and ethanol precipitation. The RNA was resuspended in water at 1 μg/μl and stored in −80° C. freezer until use. X. laevis oocytes were harvested and defolliculated by digestion with collagenase (2 mg/ml) for 2 hrs. Twenty to 40 ng of cRNA were injected into each oocyte using glass pipettes with a tip size of 20-40 μm in diameter. […] Micropipettes were filled with 3M KCl. […] Drugs were applied to oocytes via a rapid perfusion system. Data were collected at 2.2 to 11.1 Hz at room temperature using the MacLab/4e A/D converter (AD Instruments, Mountain View, Calif.). Data analysis was performed using the programs Chart (AD Instruments, Mountain View, Calif.) and Microsoft Excel."}, "NR1/NR3A receptors": {"molecular_target": "NR1/NR3A receptors (Rattus norvegicus, UniProt P35439+Q9R1M7)", "sequence (Q9R1M7 24-1135, other chains not shown)": "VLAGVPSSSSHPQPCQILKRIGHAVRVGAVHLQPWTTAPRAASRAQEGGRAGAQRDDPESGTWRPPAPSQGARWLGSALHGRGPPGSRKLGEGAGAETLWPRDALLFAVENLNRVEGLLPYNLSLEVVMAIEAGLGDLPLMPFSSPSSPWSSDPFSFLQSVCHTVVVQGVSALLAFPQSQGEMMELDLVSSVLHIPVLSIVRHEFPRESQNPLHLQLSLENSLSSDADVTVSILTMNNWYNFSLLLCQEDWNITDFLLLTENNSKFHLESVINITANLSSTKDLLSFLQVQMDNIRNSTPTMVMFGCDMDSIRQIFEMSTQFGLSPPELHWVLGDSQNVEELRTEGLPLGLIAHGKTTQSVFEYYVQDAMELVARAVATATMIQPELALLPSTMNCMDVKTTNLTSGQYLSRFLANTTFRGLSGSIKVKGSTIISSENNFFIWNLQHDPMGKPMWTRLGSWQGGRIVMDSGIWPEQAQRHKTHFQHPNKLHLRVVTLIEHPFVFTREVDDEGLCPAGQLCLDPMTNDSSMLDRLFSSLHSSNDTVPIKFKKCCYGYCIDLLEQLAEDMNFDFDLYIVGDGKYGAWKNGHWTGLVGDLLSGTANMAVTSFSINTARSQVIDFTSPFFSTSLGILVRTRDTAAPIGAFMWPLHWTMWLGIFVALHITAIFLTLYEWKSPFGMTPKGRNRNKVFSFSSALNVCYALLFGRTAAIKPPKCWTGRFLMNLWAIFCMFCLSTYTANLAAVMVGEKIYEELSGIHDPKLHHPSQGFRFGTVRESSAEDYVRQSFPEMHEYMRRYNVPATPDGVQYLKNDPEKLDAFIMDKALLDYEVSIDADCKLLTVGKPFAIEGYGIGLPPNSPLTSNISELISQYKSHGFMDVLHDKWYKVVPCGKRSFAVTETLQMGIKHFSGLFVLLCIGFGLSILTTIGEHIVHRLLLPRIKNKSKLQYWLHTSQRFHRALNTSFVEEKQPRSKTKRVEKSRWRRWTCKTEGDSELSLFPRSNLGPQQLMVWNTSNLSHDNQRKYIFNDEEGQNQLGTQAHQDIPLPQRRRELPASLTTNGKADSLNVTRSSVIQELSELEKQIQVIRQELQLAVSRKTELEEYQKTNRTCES", "experiment": "Two-electrode voltage recording of glycine-evoked currents in oocytes injected with NR1 and NR3A subunits", "quoted_text": "Microinjection of oocytes and electrophysiological recordings were performed as follows. Physiological and pharmacological properties of NMDA receptor subunits were characterized in the X. laevis oocyte expression system. […] X. laevis oocytes were harvested and defolliculated by digestion with collagenase (2 mg/ml) for 2 hrs. Twenty to 40 ng of cRNA were injected into each oocyte using glass pipettes with a tip size of 20-40 μm in diameter. Electrophysiological recordings were performed from whole oocytes 2-7 days after injection using a dual-electrode voltage-clamp amplifier (Model OC-725A, Warner Instrument, Hamden, Conn.). Micropipettes were filled with 3M KCl. The bath solution contained 115 mM NaCl, 2.5 mM KCl, 1.5 mM BaCl2, and 10 mM Hepes at pH 7.4. Drugs were applied to oocytes via a rapid perfusion system. Data were collected at 2.2 to 11.1 Hz at room temperature using the MacLab/4e A/D converter (AD Instruments, Mountain View, Calif.). Data analysis was performed using the programs Chart (AD Instruments, Mountain View, Calif.) and Microsoft Excel."}, "[1]": {"settings": "concentration of compound not given or dose-dependent"}, "[2]": {"settings": "no glutamate/NMDA, 1.5 mM Ba2+ Ringers' solution"}}, "note": "Entries after “also recorded” stand apart in the source; their conditions may differ. Like-named read-outs stand apart in the source and are kept apart here."}
{"smiles": "NC1(C(=O)O)CC1", "note": "[ACPC]", "values": [{"measurement": "effect on glycine-evoked NR1/NR3B currents on co-application", "setting": "NR1/NR3B receptors; 10 μM glycine", "value": "produces relative inhibition"}, {"measurement": "effect on glycine-evoked NR1/NR3B currents", "setting": "NR1/NR3B receptors; [1]", "value": "inhibited"}, {"measurement": "NR1/NR3B current evoked by compound applied alone", "setting": "NR1/NR3B receptors; [2]", "value": "does not evoke detectable NR1/NR3B currents"}, {"measurement": "NR1/NR2A currents on co-application with NMDA (co-agonist activity)", "setting": "NR1/NR2A receptors; co-applied with 100 μM NMDA", "value": "evokes NR1/NR2A currents"}]}
{"smiles": "N[C@@H](CCC(=O)O)C(=O)O", "note": "[glutamate]", "values": [{"measurement": "effect on NR1/NR3B currents evoked by glycine", "setting": "NR1/NR3B receptors", "value": "have little effect or only slightly potentiate the current"}]}
{"smiles": "C[C@]12N[C@H](Cc3ccccc31)c1ccccc12", "note": "[MK801]", "values": [{"measurement": "effect on glycine-evoked NR1/NR3B currents", "setting": "NR1/NR3B receptors", "value": "does not block and in fact appears to slightly potentiate"}, {"measurement": "sensitivity of NR1/NR3B receptors to channel blocker compared to NR1/NR2A (NR2-containing) receptors", "setting": "NR1/NR3B receptors", "value": "drastically less sensitive"}, {"measurement": "effect on NR1/NR2A currents", "setting": "NR1/NR2A receptors; compound 10 μM", "value": "complete blockade"}, {"measurement": "effect on glycine-evoked NR1/NR3A currents", "setting": "NR1/NR3A receptors", "value": "not only failed to block glycine-evoked currents of NR1/NR3A receptors, but actually potentiated these currents; also recorded: potentiates"}]}
{"smiles": "CN[C@H](CC(=O)O)C(=O)O", "note": "[NMDA, N-methyl-D-aspartate]", "values": [{"measurement": "NR1/NR3B current evoked by compound applied alone", "setting": "NR1/NR3B receptors", "value": "little or no effect"}, {"measurement": "effect on glycine-evoked NR1/NR3B currents", "setting": "NR1/NR3B receptors", "value": "little or no effect; also recorded: does not potentiate"}]}
{"smiles": "O=C(O)c1cc(=O)c2c(Cl)cc(Cl)cc2[nH]1", "note": "[5,7-dichlorokynurenic acid]", "values": [{"measurement": "effect on glycine-evoked NR1/NR3B currents", "setting": "NR1/NR3B receptors; [1]", "value": "completely inhibits"}, {"measurement": "effect on glycine-evoked NR1/NR3B currents", "setting": "NR1/NR3B receptors; concentration of compound not given or dose-dependent, listed as 5, 7-di-Cl-Kynurenate", "value": "blocks"}, {"measurement": "effect on glycine-evoked NR1/NR3B currents", "setting": "NR1/NR3B receptors; concentration of compound not given or dose-dependent, listed as 5,7-dichlorokynurenate", "value": "completely abolished"}, {"measurement": "effect on glycine-evoked NR1/NR3A currents", "setting": "NR1/NR3A receptors; listed as 5, 7-di-Cl-Kynurenate", "value": "effectively blocked"}, {"measurement": "effect on glycine-evoked NR1/NR3A currents", "setting": "NR1/NR3A receptors; listed as 5,7-dichlorokynurenate", "value": "blocked"}]}
{"smiles": "CC12CC3CC(C)(C1)CC(N)(C3)C2", "note": "[Memantine]", "values": [{"measurement": "effect on NR1/NR2A currents", "setting": "NR1/NR2A receptors; compound 12 μM", "value": "completely blocks"}]}
{"smiles": "[Mg+2]", "note": "[Mg^2+]", "values": [{"measurement": "sensitivity of NR1/NR3B receptors to channel blocker compared to NR1/NR2A (NR2-containing) receptors", "setting": "NR1/NR3B receptors; comparison with NR2 subunit-containing receptors", "value": "drastically less sensitive; also recorded: much less potently"}, {"measurement": "effect on glycine-induced NR1/NR3B current", "setting": "NR1/NR3B receptors; compound 0.5 mM, 10 μM glycine, holding potential −60 mV", "value": "had no effect"}, {"measurement": "effect on glycine-evoked NR1/NR3B currents", "setting": "NR1/NR3B receptors; [1]", "value": "weakly inhibits"}, {"measurement": "effect on NR1/NR2A currents", "setting": "NR1/NR2A receptors; compound 0.1 mM", "value": "inhibition"}, {"measurement": "effect on glycine-evoked NR1/NR3A currents", "setting": "NR1/NR3A receptors", "value": "no inhibitory effect"}, {"measurement": "effect on glycine-evoked NR1/NR3A currents", "setting": "NR1/NR3A receptors; higher glycine levels", "value": "potentiates peak currents without affecting the steady state current"}, {"measurement": "effect on glycine-evoked NR1/NR3A currents", "setting": "NR1/NR3A receptors; low glycine levels", "value": "not only failed to block glycine-evoked currents of NR1/NR3A receptors, but actually potentiated these currents; also recorded: actually potentiates"}]}
{"smiles": "NC(CCCP(=O)(O)O)C(=O)O", "note": "(stereo not shown) [APV, 2-amino-5-phosphonovalerate]", "values": [{"measurement": "effect on glycine-evoked NR1/NR3B currents", "setting": "NR1/NR3B receptors", "value": "little or no effect; also recorded: has little effect"}, {"measurement": "effect on glycine-induced NR1/NR3B current", "setting": "NR1/NR3B receptors", "value": "actually potentiated glycine-evoked current somewhat; also recorded: did not block the glycine-induced current, and actually potentiated the current"}, {"measurement": "effect on NR1/NR2A currents", "setting": "NR1/NR2A receptors; compound 10 μM", "value": "blocks"}, {"measurement": "effect on glycine-evoked NR1/NR3A currents", "setting": "NR1/NR3A receptors", "value": "blocked the current only slightly"}]}
{"smiles": "N[C@@H](CS)C(=O)O", "note": "[L-cysteine]", "values": [{"measurement": "effect on NR1/NR3B currents evoked by glycine", "setting": "NR1/NR3B receptors; compound 50 μM, 5 μM glycine", "value": "have little effect or only slightly potentiate the current"}, {"measurement": "effect on glycine-evoked NR1/NR3B currents", "setting": "NR1/NR3B receptors; [1]", "value": "slightly potentiated"}]}
{"smiles": "N[C@H](CO)C(=O)O", "note": "[D-serine]", "values": [{"measurement": "effect on glycine-evoked NR1/NR3B currents on co-application", "setting": "NR1/NR3B receptors; 10 μM glycine", "value": "produces relative inhibition"}, {"measurement": "effect on glycine-evoked NR1/NR3B currents", "setting": "NR1/NR3B receptors; [1]", "value": "dose-dependently inhibits currents; also recorded: inhibited; also recorded: inhibits glycine-evoked responses in a dose-dependent fashion"}, {"measurement": "NR1/NR3B current evoked by compound applied alone", "setting": "NR1/NR3B receptors; [2]", "value": "evokes small NR1/NR3B currents alone"}, {"measurement": "effect on glycine-evoked NR1/NR3A currents", "setting": "NR1/NR3A receptors", "value": "effectively blocked"}]}
